Test results published in ChEMBL document CHEMBL4342523, “Discovery and Development of S6821 and S7958 as Potent TAS2R8 Antagonists” (J Med Chem, 2020).
Calls of active or inactive are those of the source. The calls are words filed in the database; no cut-off is given here.

Key:
[1] = Stability of the compound in pH 5 buffer assessed as parent compound remaining measured after 24 hrs at 100 degC; assay type: physicochemical; conditions: read-out: Stability
[2] = target: T1, Taste receptor type 2 member 1 (Homo sapiens) (UniProt Q9NYW7); assay: Agonist activity at TAS2R1 (unknown origin) at 25 uM by transiently expressed cell-based assay
T1 sequence (whole entry): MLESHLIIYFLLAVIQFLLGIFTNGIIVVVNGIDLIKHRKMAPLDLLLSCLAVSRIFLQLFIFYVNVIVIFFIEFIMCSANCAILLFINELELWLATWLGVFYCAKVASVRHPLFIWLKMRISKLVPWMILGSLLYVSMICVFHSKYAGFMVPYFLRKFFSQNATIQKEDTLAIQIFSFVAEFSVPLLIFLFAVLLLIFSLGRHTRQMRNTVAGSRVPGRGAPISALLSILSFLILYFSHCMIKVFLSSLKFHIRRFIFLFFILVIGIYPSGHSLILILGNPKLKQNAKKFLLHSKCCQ

[3] = target: Taste receptor type 2 member 1 (Homo sapiens, UniProt Q9NYW7); assay: Agonist activity at TAS2R1 (unknown origin) by stably expressed cell-based assay
[4] = Stability of the compound in pH 7.1 buffer assessed as parent compound remaining measured after 60 mins at 124 degC; assay type: physicochemical; conditions: read-out: Stability

remaining at 24 h [1]: > 99%
Activity [2]: Active
EC50 [3]: 150 µM
remaining at 1 h [4]: 89%
SMILES: Cc1noc(C)c1Cn1cc(N2C(=O)CN(Cc3cccc(O)c3)C2=O)cn1
